The values that follow are results of earlier work, collected in patent publication US11975000B1, “Tadalafil oral transmucosal film” (Xiamen LP Pharmaceutical Co., Ltd., priority 2023, dated 2024).

For series [1] the following is noted: in vivo.

On to `CN1CC(=O)N2[C@H](c3ccc4c(c3)OCO4)c3[nH]c4ccccc4c3C[C@@H]2C1=O` [Tadalafil, (6R-trans)-6-(1,3-benzodioxol-5-yl) 2,3,6,7,12,12a-hexahydro-2-methyl-pyrazino[1′,2′:1,6]pyrido[3,4-b]indole-1,4-dione], for which the “Solubility (in words)” value is “practically insoluble in water”. In addition, for the setting “in water at 25° C., U.S. Pat. No. 6,841,167”, the Water solubility result is given as “about 2 μg/mL”. Moreover, in series [1], the Duration of action is 24 to 36 h and the Reported maximum duration is 72 h.
